Test system: TRIM24-MET-i cells
Conditions: GSEA, v. DMSO
Method: The number of unique and shared differentially expressed genes between each comparison are shown in parentheses. A linear regression line is depicted along with Pearson’s correlation coefficient (r) and its associated p-value. […] Common negatively enriched genesets between all three comparisons are in bold. c, Heatmaps showing expression of Hallmark_Myc_Target_v1/2 genes for indicated cells and treatment comparisons (TRIM-MET cells were treated in vitro, TFG-MET cells in vivo). Select leading edge genes from GSEA are labeled.

## C[C@@H](Oc1cc(-c2cnn(C3CCNCC3)c2)cnc1N)c1c(Cl)ccc(F)c1Cl [Crizotinib]
  ES GOCC_MITOCHONDRIAL_ENVELOPE: -0.5203
  ES GOCC_ORGANELLE_INNER_MEMBRANE: -0.5635
  ES GOCC_PRERIBOSOME: -0.8837
  ES GOCC_RIBONUCLEOPROTEIN_COMPLEX: -0.6028
  ES GOCC_RIBOSOME: -0.6378
  ES GOMF_STRUCTURAL_CONSTITUENT_OF_RIBOSOME: -0.6065
  ES HALLMARK_ADIPOGENESIS: -0.3925
  ES HALLMARK_ALLOGRAFT_REJECTION: -0.3891
  ES HALLMARK_ANDROGEN_RESPONSE: -0.4501
  ES HALLMARK_ANGIOGENESIS: -0.5001
  ES HALLMARK_APICAL_JUNCTION: -0.2207
  ES HALLMARK_APICAL_SURFACE: 0.438
  ES HALLMARK_APOPTOSIS: -0.353
  ES HALLMARK_CHOLESTEROL_HOMEOSTASIS: -0.4271
  ES HALLMARK_COAGULATION: -0.3066
  ES HALLMARK_COMPLEMENT: -0.2741
  ES HALLMARK_DNA_REPAIR: -0.3968
  ES HALLMARK_E2F_TARGETS: -0.4061
  ES HALLMARK_EPITHELIAL_MESENCHYMAL_TRANSITION: -0.2384
  ES HALLMARK_ESTROGEN_RESPONSE_EARLY: -0.4462
  ES HALLMARK_ESTROGEN_RESPONSE_LATE: -0.2995
  ES HALLMARK_G2M_CHECKPOINT: -0.4157
  ES HALLMARK_GLYCOLYSIS: -0.4578
  ES HALLMARK_HEDGEHOG_SIGNALING: -0.4357
  ES HALLMARK_HYPOXIA: -0.2949
  ES HALLMARK_IL2_STAT5_SIGNALING: -0.5104
  ES HALLMARK_IL6_JAK_STAT3_SIGNALING: -0.3352
  ES HALLMARK_INFLAMMATORY_RESPONSE: -0.4227
  ES HALLMARK_INTERFERON_ALPHA_RESPONSE: 0.333
  ES HALLMARK_INTERFERON_GAMMA_RESPONSE: -0.2664
  ES HALLMARK_KRAS_SIGNALING_DN: 0.421
  ES HALLMARK_KRAS_SIGNALING_UP: -0.3522
  ES HALLMARK_MITOTIC_SPINDLE: 0.3203
  ES HALLMARK_MTORC1_SIGNALING: -0.615
  ES HALLMARK_MYC_TARGETS_V1: -0.7224
  ES HALLMARK_MYC_TARGETS_V2: -0.8712
  ES HALLMARK_MYOGENESIS: 0.2133
  ES HALLMARK_NOTCH_SIGNALING: -0.3408
  ES HALLMARK_OXIDATIVE_PHOSPHORYLATION: -0.5351
  ES HALLMARK_P53_PATHWAY: -0.3345
  ES HALLMARK_PANCREAS_BETA_CELLS: 0.2531
  ES HALLMARK_PEROXISOME: -0.2701
  ES HALLMARK_PI3K_AKT_MTOR_SIGNALING: -0.3822
  ES HALLMARK_PROTEIN_SECRETION: -0.253
  ES HALLMARK_TGF_BETA_SIGNALING: -0.4216
  ES HALLMARK_TNFA_SIGNALING_VIA_NFKB: -0.4566
  ES HALLMARK_UNFOLDED_PROTEIN_RESPONSE: -0.6894
  ES HALLMARK_UV_RESPONSE_DN: 0.2824
  ES HALLMARK_UV_RESPONSE_UP: -0.4491
  ES HALLMARK_WNT_BETA_CATENIN_SIGNALING: -0.3428
  ES KRIGE_RESPONSE_TO_TOSEDOSTAT_6HR_DN: -0.7282
  ES KRIGE_RESPONSE_TO_TOSEDOSTAT_24HR_DN: -0.7493
  ES LEE_BMP2_TARGETS_DN: -0.726
  ES PUJANA_CHEK2_PCC_NETWORK: -0.6234
  ES WEI_MYCN_TARGETS_WITH_E_BOX: -0.7486
  NES GOBP_NCRNA_PROCESSING: -2.807
  NES GOBP_RIBONUCLEOPROTEIN_COMPLEX_BIOGENESIS: -2.6966
  NES GOBP_RIBOSOME_BIOGENESIS: -2.885
  NES GOCC_MITOCHONDRIAL_ENVELOPE: -1.997
  NES GOCC_ORGANELLE_INNER_MEMBRANE: -2.127
  NES GOCC_PRERIBOSOME: -2.754
  NES GOCC_RIBONUCLEOPROTEIN_COMPLEX: -2.312
  NES GOCC_RIBOSOME: -2.274
  NES GOMF_STRUCTURAL_CONSTITUENT_OF_RIBOSOME: -2.105
  NES HALLMARK_ADIPOGENESIS: -1.373
  NES HALLMARK_ALLOGRAFT_REJECTION: -1.343
  NES HALLMARK_ANDROGEN_RESPONSE: -1.464
  NES HALLMARK_ANGIOGENESIS: -1.355
  NES HALLMARK_APICAL_JUNCTION: -0.7717
  NES HALLMARK_APICAL_SURFACE: 1.391
  NES HALLMARK_APOPTOSIS: -1.211
  NES HALLMARK_CHOLESTEROL_HOMEOSTASIS: -1.341
  NES HALLMARK_COMPLEMENT: -0.9577
  NES HALLMARK_DNA_REPAIR: -1.352
  NES HALLMARK_E2F_TARGETS: -1.43
  NES HALLMARK_EPITHELIAL_MESENCHYMAL_TRANSITION: -0.8343
  NES HALLMARK_ESTROGEN_RESPONSE_EARLY: -1.563
  NES HALLMARK_ESTROGEN_RESPONSE_LATE: -1.046
  NES HALLMARK_G2M_CHECKPOINT: -1.457
  NES HALLMARK_GLYCOLYSIS: -1.603
  NES HALLMARK_HEDGEHOG_SIGNALING: -1.2
  NES HALLMARK_HYPOXIA: -1.03
  NES HALLMARK_IL2_STAT5_SIGNALING: -1.788
  NES HALLMARK_IL6_JAK_STAT3_SIGNALING: -1.065
  NES HALLMARK_INFLAMMATORY_RESPONSE: -1.474
  NES HALLMARK_INTERFERON_ALPHA_RESPONSE: 1.217
  NES HALLMARK_INTERFERON_GAMMA_RESPONSE: -0.9329
  NES HALLMARK_KRAS_SIGNALING_DN: 1.674
  NES HALLMARK_KRAS_SIGNALING_UP: -1.231
  NES HALLMARK_MITOTIC_SPINDLE: 1.318
  NES HALLMARK_MTORC1_SIGNALING: -2.165
  NES HALLMARK_MYC_TARGETS_V1: -2.537
  NES HALLMARK_MYC_TARGETS_V2: -2.6498
  NES HALLMARK_MYOGENESIS: 0.8749
  NES HALLMARK_NOTCH_SIGNALING: -0.9083
  NES HALLMARK_OXIDATIVE_PHOSPHORYLATION: -1.871
  NES HALLMARK_P53_PATHWAY: -1.1707
  NES HALLMARK_PANCREAS_BETA_CELLS: 0.7398
  NES HALLMARK_PEROXISOME: -0.8785
  NES HALLMARK_PI3K_AKT_MTOR_SIGNALING: -1.243
  NES HALLMARK_PROTEIN_SECRETION: -0.8206
  NES HALLMARK_TGF_BETA_SIGNALING: -1.271
  NES HALLMARK_TNFA_SIGNALING_VIA_NFKB: -1.6076
  NES HALLMARK_UNFOLDED_PROTEIN_RESPONSE: -2.272
  NES HALLMARK_UV_RESPONSE_DN: 1.115
  NES HALLMARK_UV_RESPONSE_UP: -1.536
  NES HALLMARK_WNT_BETA_CATENIN_SIGNALING: -0.9746
  NES KRIGE_RESPONSE_TO_TOSEDOSTAT_6HR_DN: -2.811
  NES KRIGE_RESPONSE_TO_TOSEDOSTAT_24HR_DN: -2.908
  NES LEE_BMP2_TARGETS_DN: -2.799
  NES PUJANA_CHEK2_PCC_NETWORK: -2.394
  NES WEI_MYCN_TARGETS_WITH_E_BOX: -2.882

Reference: publication PMC11157767 (Molecular Cancer, 2024)
